According to patent US4742058A, “Polyprenyl compound, process for the production thereof and drug containing the same” (Eisai Co., Ltd., priority 1982, dated 1988):

Columns and labels:
[1] = system: platelet aggregation provoked by PAF (washed rabbit platelets); assay: Anti-PAF activity (inhibition of PAF-provoked platelet aggregation in washed platelets, nephelometry); type: cell-based; conditions: Oryctolagus cuniculus, PAF 30 ng/ml, read-out: Inhibition rate PAF
Description: (a) Preparation of washed platelet suspension (hereinafter referred to as W.P.)
(§1) A blood sample was collected from a carotid artery of a male rabbit weighing 2.5 kg, while adding thereto one volume of a 3.13% sodium citrate solution per 9 volumes of blood as a […]. The resulting blood was centrifuged at 200 xg for 20 minutes to separate out platelet-rich plasma (hereinafter referred to as PRP). This PRP was centrifuged at 1,000 xg for 15 minutes to separate the platelets from the plasma. The deposited platelets were washed twice with a Tyrode solution (Tyrode-Ca^++), from which Ca^++ had been removed and to which 1% bovine serum albumin (BSA) had been added, such that 9×10^5 platelets per μl were finally suspended in the Tyrode solution.
(b) Preparation of specimens and PAF
Specimens were dissolved or suspended in a physiological saline. PAF was dissolved in a Tyrode solution containing 1% BSA. PAF synthesized from D-mannitol in accordance with a method disclosed by J. J. Godfroid et al was used (FEBS Letters 116, 161-164, 1980).
(c) Measurement of platelet aggregation
(§2) Platelet aggregation measurements were conducted according to nephelometry described by Born et al using a platelet aggregation meter manufactured by Schenko Co. Specimen solutions having various concentrations of test compounds and 0.25 ml of W.P. were subjected to preincubation at 37° C. for 4 minutes, and then PAF was added thereto to give a final PAF concentration of 30 ng/ml to provoke platelet aggregation. The transmittance of the W.P. before aggregation, that is, before the addition of the aggregation provoking agent, was rated as 0, and the transmittance of the Tyrode solution was rated as 100. After the addition of the PAF solution to the W.P., light transmittance increased as aggregation proceeded. The value of the light transmittance at the time when the aggregation had proceeded to a maximum was rated as the maximum aggregation (hereinafter referred to as MA) which was used as an index of the degree of aggregation.
(§3) The inhibition rate was calculated according to the following equation. The aggregation in a W.P.-containing physiological saline solution free of test compound, as a control, was rated as 0% aggregation inhibition. [formula] wherein M.A. Control: maximum aggregation after platelet aggregation in PAF was provoked, after the addition of physiological saline.
M.A. Sample: maximum aggregation after platelet aggregation in PAF was provoked, after the addition of the test compound.

[2] = system: platelet aggregation provoked by bovine thrombin (washed rabbit platelets); assay: Antithrombic activity (inhibition of thrombin-provoked platelet aggregation); type: cell-based; conditions: Oryctolagus cuniculus, bovine thrombin 0.2 units/ml, read-out: Inhibition rate Thrombin (%)
Description: as §1, §2, §3
(2) Antithrombic activity
The measurement of the antithrombic activity was conducted in the same manner as described above, except that bovine thrombin at a final concentration of 0.2 units/ml was used as the platelet aggregation provoking agent in place of PAF.

Row | SMILES | inhibition at 50 µM [1] | inhibition at 50 µM [2] | inhibition at 20 µM [1] | inhibition at 20 µM [2]
1 | CC(C)=CCC/C(C)=C/CC/C(C)=C/CC/C(C)=C/C(=O)N(CCO)CCO | 76.4% | – | – | –
2 | CC(C)=CCC/C(C)=C/CCC(C)CC(=O)NCCO (centres unmarked) | 31.4% | – | – | –
3 | CC(C)=CCC/C(C)=C/CC/C(C)=C/CC/C(C)=C/CC/C(C)=C/C(=O)NCCO | 22.7% | – | – | –
4 | CC(C)=CCC/C(C)=C/CC/C(C)=C/C(=O)NCCO | 18.7% | – | – | –
5 | CC(C)=CCC/C(C)=C/CC/C(C)=C/CC/C(C)=C/C(=O)N1CCCC(O)C1 (centres unmarked) | 27.4% | 19.2% | – | –
6 | CC(C)=CCC/C(C)=C/CC/C(C)=C/CC/C(C)=C/C(=O)N1CCCCC1CO (centres unmarked) | 34.4% | 27.4% | – | –
7 | CCN1CCCC(NC(=O)/C=C(\C)CC/C=C(\C)CC/C=C(\C)CCC=C(C)C)C1 (centres unmarked) | 80.3% | 24.2% | – | –
8 | CC(C)CCCC(C)Cc1ccc(C(=O)NCCO)cc1 (centres unmarked) | – | – | 57.8% | –
9 | CC(C)CCCC(C)Cc1ccc(C(=O)N(CCN(C)C)CCN(C)C)cc1 (centres unmarked) | – | – | 59.4% | –
10 | CC(C)CCCC(C)CCCc1ccc(C(C)CC(=O)N(CCN(C)C)CCN(C)C)cc1 (centres unmarked) | 82.6% | – | 57.8% | –
11 | CC(=CC(=O)NCCO)c1ccc(CCCC(C)CCCC(C)C)cc1 (centres unmarked) | – | – | 55.9% | –
12 | CC(=CC(=O)N(CCN(C)C)CCN(C)C)c1ccc(CCCC(C)CCCC(C)C)cc1 (centres unmarked) | 82.2% | – | 63.2% | –
13 | CC(C)CCCC(C)CCCC(C)Cc1ccc(C(=O)N(CCN(C)C)CCN(C)C)c(F)c1 (centres unmarked) | – | – | 64.9% | –
14 | CC(C)CCCC(C)CCCC(C)Cc1ccc(C(=O)N(CCN(C)C)CCN(C)C)c2ccccc12 (centres unmarked) | – | – | 59.3% | –
15 | CC(C)CCCC(C)CCCC(C)Cc1cccc2c(C(=O)N(CCN(C)C)CCN(C)C)cccc12 (centres unmarked) | – | – | 58.3% | –
16 | CC(C)CCCC(C)CCCC(C)Cc1ccc(C(=O)N(CCN(C)C)CCN(C)C)c2c1CCCC2 (centres unmarked) | – | – | 50.5% | –
17 | CC(C)=CCC/C(C)=C/CC/C(C)=C/CC/C(C)=C/CNC(=O)CN(C)C | – | – | 60.4% | –
18 | CC(C)=CCC/C(C)=C/CC/C(C)=C/CC/C(C)=C/CNC(=O)CCN | – | – | 59.1% | –
19 | CC(C)=CCC/C(C)=C/CC/C(C)=C/CC/C(C)=C/CNCCN(C)C | – | – | 37.1% | –
20 | CC(C)=CCC/C(C)=C/CC/C(C)=C/CC/C(C)=C/C(=O)NCCN(C)C | – | – | 74.3% | –
21 | CC(C)=CCC/C(C)=C/CC/C(C)=C/CC/C(C)=C/C(=O)N(CCN(C)C)CCN(C)C | – | – | 88.7% | 76.4%
22 | CC(C)=CCC/C(C)=C/CC/C(C)=C/c1ccc(C(=O)NCCN(C)C)cc1 | – | – | 73.5% | 34.2%
23 | CC(C)CCCC(C)CCCC(C)Cc1ccc(C(=O)NCCN(C)C)cc1 (centres unmarked) | – | – | 80.6% | 70.3%
24 | CC(C)=CCC/C(C)=C/CC/C(C)=C/c1ccc(C(=O)N(CCN(C)C)CCN(C)C)cc1 | – | – | 93.6% | 70.6%
25 | CC(C)CCCC(C)CCCC(C)Cc1ccc(C(=O)N(CCN(C)C)CCN(C)C)cc1 (centres unmarked) | – | – | 74.7% | 78.8%
